One data set relates to Parkinson's patients. The data set is described as follows: three year, international, multicentre, double-blind comparative clinical trial of ropinirole versus bromocriptine. The format is in vivo, human. To be noted: for patients considered responders (at least a 30% reduction from baseline in total motor examination score on the UPDRS): at the study's completion; for mean improvement in UPDRS motor score: three years. The source says:
In a three year, international, multicentre, double-blind comparative clinical trial, Parkinson's patients were randomised to receive either ropinirole (n=168) or bromocriptine (n=167). 33% of patients received selegiline concomitantly with either ropinirole or bromocriptine. Of those enrolled, 214 patients completed the study (approximately 39% of patients treated with ropinirole and 33% of patients treated with bromocriptine withdrew from the study). Efficacy was based on the following:
1 Mean Unified Parkinson's Disease Rating Scale (UPDRS) Activities of Daily Living (ADL) score (Part II) at completion
2 Improvement in UPDRS total motor examination score (Part III)
3 Percentage of patients who were considered responders, defined as those with at least a 30% reduction from baseline in total motor examination score on the UPDRS
4 Average combined ADL and motor score at endpoint
5 The percentage of patients who required supplemental levodopa therapy.

Data set [1] concerns putamen dopaminergic function. The data set is described as follows: 18 Fluoro-dopa PET scanning in five year, double-blind, multicentre study of ropinirole versus levodopa. To be noted: for loss of putamen dopaminergic function (mean percent change): all patients (Hoehn & Yahr I-III), approximately two years between scans, average of both sides of the brain; for loss of putamen dopaminergic function (mean percent change) / decrease in putamen dopaminergic function (mean percent change): 18 Fluoro-dopa PET; for decrease in putamen dopaminergic function (mean percent change): subgroup of patients with Parkinson's disease for less than 2 years. The format is in vivo, human. The procedure: In an ongoing five year, double-blind, multicentre study, patients with early Pakinson's disease (Hoehn & Yahr I-III) were randomised to receive either ropinirole or levodopa. Of those enrolled, 37 patients were scanned using 18 Fluoro-dopa PET scanning within the first year and then approximately two years later to measure the gradual decline in basal ganglia dopaminergic function. […] The following endpoints were assessed:
1 Mean percent change in putamen dopaminergic function in all patients (Hoehn & Yahr I-III)
2 Mean percent change in putamen dopaminergic function in Parkinson's disease patients with symptoms present for under two years
3 Mean percent change in putamen dopaminergic function in Parkinson's disease patients with symptoms present for more than two years

Where [2] appears, read: patients who completed the study.

Data on three compounds can be found in patent US20030060499A1, “Novel therapeutic method” (priority 1998, published 2003).

Structures can show the parent of a compound that is named as a salt.

As for `CC(C)C[C@H]1C(=O)N2CCC[C@H]2[C@]2(O)O[C@](NC(=O)[C@@H]3C=C4c5cccc6[nH]c(Br)c(c56)C[C@H]4N(C)C3)(C(C)C)C(=O)N12` [bromocriptine], the “patients considered responders (at least a 30% reduction from baseline in total motor examination score on the UPDRS)” value in the data set on Parkinson's patients turned out to be 42%. In the data set on Parkinson's patients (setting [2]), the “mean improvement in UPDRS motor score” value is 22%. In the data set on Parkinson's patients (three year trial), the incidence of dyskinesias was 7% and the “patients who required supplemental levodopa” value is reported as 42%.

As to `N[C@@H](Cc1ccc(O)c(O)c1)C(=O)O` [levodopa], in data set [1], the “loss of putamen dopaminergic function (mean percent change)” value was found to be 18% and the “decrease in putamen dopaminergic function (mean percent change)” value was 28%.

Turning to `CCCN(CCC)CCc1cccc2c1CC(=O)N2` [ropinirole, 4-[2-(di-n-propylamino)ethyl]-1,3-dihydro-2H-indolin-2-one hydrochlorid], in data set [1], the “loss of putamen dopaminergic function (mean percent change)” value was determined as 13% and the “decrease in putamen dopaminergic function (mean percent change)” value is recorded as 14%. Moreover, in data set [1] (patients with Parkinson's disease for more than two years, ropinirole versus levodopa), the “difference between treatment groups in change in putamen dopaminergic function” value was “no statistically significant difference”. In addition, in the data set on Parkinson's patients (at endpoint, p=0.018), the “average improvement in the combined ADL and motor scores versus bromocriptine” value is recorded as “statistically significantly greater”. For the same compound, the “patients considered responders (at least a 30% reduction from baseline in total motor examination score on the UPDRS)” value in the data set on Parkinson's patients was 53%. The incidence of dyskinesias with Parkinson's patients (human, in vivo, 3 years) came out at 8%. In addition, the “mean improvement in UPDRS ADL score versus bromocriptine” value with Parkinson's patients (patients who completed the study, p=0.009) is listed as “statistically significantly mean improvement”. In the data set on Parkinson's patients (setting [2]), the “mean improvement in UPDRS motor score” value is given as 31%. Also, the “patients who required supplemental levodopa” value in the data set on Parkinson's patients (three year trial) is on record as 34%.
